From article PMC6749524, “Identification of New Antifungal Agents Targeting Chitin Synthesis by a Chemical-Genetic Method” (Molecules, 2019)
Like-named read-outs stand apart in the source and are kept apart here.

What was measured:
chitin in WT yeast cells = experiment: CFW staining of chitin, fluorescence microscopy; format: cell-based, S. cerevisiae; conditions: 12.5 or 25 μg/mL, 3 or 5 hours, vs DMSO control
Method: WT S. cerevisiae and C. albicans ATCC10231 were grown to 10^5 CFU/mL in YPD medium and then treated with IMB-D10 (12.5 or 25 μg/mL), IMB-F4 (12.5 or 25 μg/mL), or 0.25% DMSO for 3 and 5 hours at 30 ℃. Cells were collected by centrifugation at 1500 g for 5 min and resuspended in PBS. Some cells were examined using 100 × / 1.25 oil immersion objective (DM2500, Leica) and analyzed by Leica las. Some cells were stained with 100 μg/mL Calcofluor White M2R (CFW, Sigma-Aldrich, St. Louis, MO, USA for 3 min and washed three times with water. Then, the cells were examined under the UV light for fluorescent signals.

[1] = test system: WT S. cerevisiae strain BY4741; experiment: MIC in compound library screening assay, WT yeast; format: cell-based; conditions: WT BY4741, YPD, 30 °C, 24 hours, MIC90
Method: (§1) The compound library is a combination of synthetic compounds from Enamine (Kyiv, Ukraine) and Life Chemicals Inc. (Burlington, ON, Canada) and natural products from the Institute of Medicinal Biotechnology. We used WT, chs3∆, and fks1∆ yeast strains to screen new antifungal agents. The screening assays were performed in 96-well plates in a final volume of 200 μL. Fresh yeast cells (OD600 = 0.8) were diluted to 10^5 CFU/mL in YPD medium. We added 198 μL of diluted culture and 2 μL of compounds into each well, and the final concentration of compounds was 100 μg/mL with 1% DMSO. The yeast cells were incubated at 30 °C for 24 hours to assess the growth. For the compounds that inhibited the growth of all three yeast strains, they were serially diluted to determine the minimal inhibit concentration (MIC) with the same method. MIC endpoints were defined as the lowest concentration of drugs that cause a 90% decrease in growth compared to the drug-free control (MIC90).

C. albicans ATCC10231 = experiment: Growth inhibition, broth microdilution MIC; format: cell-based, Candida albicans
Method: The experiments were carried out using a broth microdilution protocol modified from the Clinical and Laboratory Standards Institute M-27A methods. WT S. cerevisiae and C. albicans were grown to mid-log phase in YPD medium. The cells were collected by centrifugation at 1500 g for 5 min and diluted with RPMI 1640 medium to the density of 1 × 10^4 CFU/mL. Then, the samples with various concentrations of compounds were dispensed at 0.2 mL/well in sterile 96-well microplates. The final concentrations of compounds ranged from 3.125 to 100 μg/mL with serial two-fold dilution. After incubation at 30 °C (S. cerevisiae) or 35 °C (C. albicans) for 24 hours, the minimal inhibitory concentration (MIC) was determined by measuring the optical density of the wells with cell cultures. The antifungal agent caspofungin was used as a positive control. All tests were performed in triplicate.

[2] = test system: human embryonic kidney 293 cells; experiment: Cytotoxicity assay (MTT); format: cell-based; conditions: concentration as high as 100 μg/mL, 48 hours
Method: (§2) Human embryonic kidney 293 cells and Hela cells were seeded in triplicate in 96-well plates and grown to log-phase in DMEM medium with 10% FBS. Then, the medium was removed, and the cells were incubated with compounds at various concentrations ranging from 3.125 to 100 μg/mL in DMEM medium without FBS. After incubation for 48 hours, MTT reagent was added for further incubation for 4 hours. After we added 50 μL of DMSO, the absorbance was measured at 570 nm. The IC50 values were calculated based on a concentration-response curve.

Hela cells = experiment: Cytotoxicity assay (MTT); format: cell-based, human; conditions: concentration as high as 100 μg/mL, 48 hours
Method: as §2

[3] = test system: fks1∆ (fks1::KanMX in BY4741); experiment: MIC in compound library screening assay, fks1∆ yeast; format: cell-based, S. cerevisiae
Method: as §1

Chs2 = Chs2 (Saccharomyces cerevisiae, UniProt P14180); experiment: Chitin synthase activity assay (WGA-coated plate); format: biochemical, S. cerevisiae; conditions: membrane protein from WT yeast
Chain of Chs2 (P14180 whole entry): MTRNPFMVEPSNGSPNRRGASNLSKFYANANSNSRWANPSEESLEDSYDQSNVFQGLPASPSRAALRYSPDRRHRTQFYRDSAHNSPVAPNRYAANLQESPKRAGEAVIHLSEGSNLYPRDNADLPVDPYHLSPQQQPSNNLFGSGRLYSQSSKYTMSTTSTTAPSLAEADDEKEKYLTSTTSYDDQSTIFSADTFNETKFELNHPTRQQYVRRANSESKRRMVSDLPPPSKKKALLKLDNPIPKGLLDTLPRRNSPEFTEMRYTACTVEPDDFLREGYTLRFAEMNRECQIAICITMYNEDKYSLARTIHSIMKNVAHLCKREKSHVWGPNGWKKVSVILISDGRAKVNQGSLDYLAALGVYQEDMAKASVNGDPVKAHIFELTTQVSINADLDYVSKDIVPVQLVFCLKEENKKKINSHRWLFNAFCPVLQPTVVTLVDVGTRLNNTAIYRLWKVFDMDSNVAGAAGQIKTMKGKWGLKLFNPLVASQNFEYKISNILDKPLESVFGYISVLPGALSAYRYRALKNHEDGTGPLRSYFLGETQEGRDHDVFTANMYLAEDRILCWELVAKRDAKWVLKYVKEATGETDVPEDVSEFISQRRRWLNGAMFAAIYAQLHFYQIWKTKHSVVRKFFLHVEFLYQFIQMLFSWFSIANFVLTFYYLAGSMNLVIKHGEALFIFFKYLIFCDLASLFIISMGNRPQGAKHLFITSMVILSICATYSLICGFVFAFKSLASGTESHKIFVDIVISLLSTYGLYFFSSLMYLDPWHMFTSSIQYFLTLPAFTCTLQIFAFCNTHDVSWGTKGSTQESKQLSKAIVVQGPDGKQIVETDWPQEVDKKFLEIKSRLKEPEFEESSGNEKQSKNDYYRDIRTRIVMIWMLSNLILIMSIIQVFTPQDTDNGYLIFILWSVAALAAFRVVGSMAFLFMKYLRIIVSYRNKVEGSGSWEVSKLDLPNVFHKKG
Method: The inhibitory effect of compounds IMB-D10 and IMB-F4, on the activity of chitin synthases 1, 2, and 3, was measured by the procedure, described previously. In brief, WT yeast cells were grown in YPD medium to OD600 1–2. The cells were sedimented at 1500 g for 15 min at 4 °C and washed once with water. Then, the cells were resuspended in cold 100 mM Tris-HCl (pH 7.5) buffer containing protease inhibitors, and broken by 10 cycles of vortexing with acid-washed glass beads (1 min each). The broken cells were centrifuged for 15 min at 1500g to eliminate cell wall and debris. One volume of supernatant was placed on 2 volumes of 10% w/w sucrose in 100 mM Tris-HCl pH 7.5 and centrifuged at 55,000 g for 2 hours. The pellet was resuspended in 50 mM Tris-HCl pH 7 and used as membrane protein of Chs3. For Chs1 and Chs2, the membrane protein was pretreated with 80 μg/mL trypsin for 30 min at 30 °C.
To assess the enzyme activity of Chs1, the assay mixture contained 15 μg membrane protein, 5 mM MgCl2, 32 mM Tris-maleate (pH6.5), 0.2% digitonin, 40 mM N-acetyl-glucosamine (GlcNAc), and 4 mM UDP-GlcNAc. For Chs2, the mixture contained 15 μg pretreated membrane protein, 1.6 mM CoCl2, 32 mM Tris-HCl (pH 8), 40 mM GlcNAc, and 4 mM UDP-GlcNAc. For Chs3, the mixture contained pretreated membrane protein 15 μg, 1.6 mM CoCl2, 5 mM NiCl2, 32 mM Tris-HCl (pH 8), 40 mM GlcNAc, and 4 mM UDP-GlcNAc. Different concentrations of IMB-D10 and IMB-F4 were added to the mixture, and the reaction without UDP-GlcNAc was used to measure background absorbance. The 96-well plate coated with 50 μg/mL wheat germ agglutinin (WGA) was washed three times with water, and the reaction mixture was added into the wells and incubated at 30 °C for 60 min. The reaction was stopped by 50 mM EDTA, and the plate was emptied and washed with a large volume of water, followed by the addition of 200 μL 0.5 μg/mL WGA-HRP and incubation for 5 min at room temperature. The plate was washed 5 times with running distilled water. Then, the Tetramethylbenzidine (TMB) reagent was added, and the optical density at 600 nm (OD600) was immediately detected with Multilabel Reader (Envision, PE, Pontyclun, UK). All reactions were performed in triplicate.

Molecule | CFW fluorescent signal around the cell wall and at the primary septum (chitin in WT yeast cells) | MIC ([1]; Saccharomyces cerevisiae, read-out: MIC, WT) [µg/mL] | MIC (C. albicans ATCC10231; Candida albicans, read-out: MIC) [µg/mL] | growth inhibition (toxicity) [2] | growth inhibition (toxicity) (Hela cells) | MIC ([3]; Saccharomyces cerevisiae, 24 h, read-out: MIC, fks1∆) [µg/mL] | IC50 Chs2 (Chs2) [µg/mL] | MIC, WT [1] [µg/mL] | MIC (C. albicans ATCC10231) [µg/mL] | MIC, fks1∆ ([3]; fks1∆ mutant, YPD, 30 °C, 24 hours, MIC90) [µg/mL]
COc1cc(OC)cc(C(=O)N(CCn2ccnc2)c2nc3ccc(OC)cc3s2)c1 [IMB-F4, N-(2-(1H-imidazol-1-yl)ethyl)-3,5-dimethoxy-N-(6-methoxybenzo[d]thiazol-2-yl)benzamide] | weaker fluorescent signal | > 100 | > 100 | No growth inhibition | No growth inhibition | 50 | – | – | – | –
N-(2-(diethylamino) ethyl)-N-(7-hydroxy-4-methoxybenzo[d]thiazol -2-yl)-2-oxo-2H-chromene-3-carboxamide [IMB-D10] | weaker fluorescent signal | – | – | – | – | – | 3.516 ± 1.35 | 50 | 100 | 25
